Results published in patent US20240336564A1, “COMPOUND, RUBBER MIXTURE CONTAINING THE COMPOUND, VEHICLE TIRE WHICH HAS AT LEAST ONE COMPONENT COMPRISING THE RUBBER MIXTURE, PROCESS FOR PREPARING THE COMPOUND, AND USE OF THE COMPOUND AS AN AGING PROTECTION AGENT AND/OR ANTIOZONANT AND/OR COLORANT” (CONTINENTAL REIFEN DEUTSCHLAND GMBH, priority 2021, published 2024).

Experiment: Measurement of oxidation induction time (OIT) by DSC
Conditions: with liquid polyisoprene LIR-50, isothermal 180° C., O2 atmosphere 50 mL/min, DSC peak; measurement accuracy ±10 min
Description: The compound of formula III) was investigated under laboratory conditions for their potential protective effect as aging stabilizers by measurement of the oxidation induction time.
To this end the compounds of formula III) and 6-PPD in each case together with a polymer (liquid synthetic polyisoprene (IR), LIR-50, Kuraray, weight average molecular weight distribution MW=54 000 g/mol, glass transition temperature Tg=−63° C.) were heated at constant temperature (180° C.) until onset of oxidation (start temperature 35° C., heating to 170° C. at a heating rate of 20 K/min (kelvin per minute), heating to 180° C. at a heating rate of 1 K/min; purge gas: nitrogen (N2), volume flow 50 mL/min). The specimen was isothermally maintained for 5 minutes at 180° C. under an N2 atmosphere and the atmosphere was then switched to an O2 atmosphere (volume flow 50 mL/min).
Oxidation was determined via a peak using DSC (differential scanning calorimetry).
The time in minutes to oxidation was measured.

Compound	Oxidation induction time (time to oxidation)
CC(C)CC(C)Nc1ccc(-c2cc3ccccc3[nH]2)cc1 (centres unmarked)	121 ± 10 min
CC(C)CC(C)Nc1ccc(Nc2ccccc2)cc1 (centres unmarked) [Compound 6-PPD, N-(1,3-dimethylbutyl)-N′-phenyl-p-phenylenediamine]	116 ± 10 min
